Laboratory results reported in patent publication US12569506B2, “Methods of treating osteonecrosis with LLP2A-bisphosphonate compounds” (The Regents of the University of California, priority 2016, dated 2026).
Entries after “also recorded” stand apart in the source; their conditions may differ. Where two headings read alike, the source gives them in different places.

Legend:
[1] = test system: CD31 and Endomucin expression; test: 30 and 45 day prevention study: blood vessels in the distal femur (CD31 and Endomucin expression); type: in vivo, BALB/c mice; details: 30 and 45 day study, conclusion
Method: The efficacy of LLP2A-Ale and hPTH (1-34) was evaluated over a 30 and 45 day study using a mouse model of glucocorticoid-induced osteonecrosis. Seven week-old male BALB/c mice were randomized into Placebo group (fresh water), glucocorticoid only (4 mg/L dexamethasone (Dex) in drinking water), Dex+250 μg/kg LLP2A-Ale, Dex+500 μg/kg LLP2A-Ale, or Dex+40 μg/kg hPTH (administered five times a week) for 30 or 45 days. At day 30 or 45, the mice were sacrificed. Study endpoints included histological evidence of osteonecrosis, bone mass, and prevalent blood vessels (CD31 and Endomucin expression) in the distal femur, and was performed as set forth in Example 2. Non-parametric Kruskal-Wallis tests were used to determine the differences between the groups.

[2] = test system: dexamethasone-treated mice; type: in vivo, BALB/c mice; details: for Samples with three or more osteonecrosis characteristics (number/total) / Samples with three or more osteonecrosis characteristics (percent): day 90
Method: FIG. 7. Prevalence of osteonecrosis in dexamethasone-treated mice. Mice were treated for 90 days with dexamethasone (Dex), 4 mg/l in drinking water or placebo (PL) (fresh water). At day 30, the Dex-treated mice were re-randomized to Dex alone, Dex+250 μg/kg LLP2A-Ale, Dex+500 μg/kg LLP2A-Ale, and Dex+750 μg/kg LLP2A-Ale. The LLP2A-Ale treatments were given on days 30, 45, 60, and 75. All mice were euthanized at day 90. Right and left distal femurs were fixed in 10% neutral buffer formalin and decalcified. The specimens were dehydrated, embedded in paraffin, cut into 5 micron sections and H&E stained. The sections were evaluated for osteonecrosis by bright light microscopy using modified criteria reported by Yang et al., J. Orthop. Res., 27:169-75 (2009)), which defines osteonecrosis by the presence of the five following characteristics: (1) empty lacunae, (2) pyknotic osteocyte nuclei in areas of empty lacunae and necrosis of adjacent bone marrow, (3) presence of excessive fat cells in the bone marrow, (4) cartilage degradation, and (5) presence of fibrin thrombi in the blood vessels. Each GC-treated group and placebo group were assessed for all five osteonecrosis characteristics or the presence of at least three of the five osteonecrosis characteristics described above.
The efficacy of LLP2A-Ale was evaluated over a 90 day study using a mouse model of glucocorticoid-induced osteonecrosis. Seven week-old male mice (BALB/c (n=80, Jackson laboratories, USA) were housed in a sanitary ventilated animal room maintained at 20° C. with a 12-hour light/dark cycle. All animals were handled according to the USDA animal care guidelines with the approval of the UC Davis Committee on Animal Research. The mice were given water and standard commercial rodent chow (22/5 Rodent Diet; Teklad, Madison, WI) ad libitum. The animals were weight randomized to either a placebo group (fresh water) or glucocorticoid only (4 mg/L dexamethasone (Dex) in drinking water) and treated for 90 days. At day 30, the Dex-treated mice were then re-randomized to Dex alone, Dex+250 μg/kg LLP2A-Ale, Dex+500 μg/kg LLP2A-Ale and Dex+750 μg/kg LLP2A-Ale. The LLP2A-Ale treatments were given on days 30, 45, 60 and 75. Additionally, 0.1 mg/kg methotrexate was administered twice weekly by subcutaneous injection from day 1-42 in all groups receiving glucocorticoid.
All the mice were euthanized at day 90. The body weights of all the study animals were assessed each week. If the study animals had 10% loss of body weight compared to the previous week, the dose of dexamethasone was reduced to 2 mg/L, until weight gain was observed. All of the animals were injected with calcein (30 mg/kg) and alizarin red (20 mg/kg) at 7 and 2 days before euthanization.
Both the right and left distal femurs were fixed in 10% neutral buffered formalin and were shaken for 3 days, then decalcified in 5% EDTA until the bones were fully decalcified. The specimens were then processed in ascending concentrations of ethanol and embedded in paraffin. Tissue sections were cut into 5 microns sections, stained with hematoxylin and eosin and evaluated for the presence of osteonecrosis by bright field microscopy at 20× magnification. Experimental methods are also described in Mohan et al., Calif Tissue Int (2016) doi:10.1007/s00223-016-0195-6, which is incorporated herein by reference in its entirety for all purposes. Osteonecrosis was detected using modified criteria reported by Yang el al., (a mouse model for glucocorticoid-induced osteonecrosis: Effect of a steroid holiday. J Orthop Res. 2009; 27:169-75) which defines osteonecrosis as requiring all of the following changes: (1) empty lacunae, (2) pyknotic osteocyte nuclei in areas of empty lacunae and necrosis of adjacent bone marrow, (3) presence of excessive fat cells in the bone marrow, (4) cartilage degradation and (5) presence of fibrin thrombi in the blood vessels. […]

[3] = test system: glucocorticoid-treated mice; test: 56 day mouse model of glucocorticoid-induced osteonecrosis: femur blood vessel / vascular density by microCT; type: in vivo
Method: FIG. 2. Blood vessel density of femurs from glucocorticoid-treated mice. 4 month old male mice were treated glucocorticoid (“GC”) or placebo for 56 days. At day 28 a group of glucocorticoid-treated mice were treated with LLP2A-Ale or PTH for an additional 28 days.
FIG. 3. Vascular density of femurs from glucocorticoid-treated mice. 4 month old male mice were treated with glucocorticoid or placebo for 56 days. At day 28 a group of glucocorticoid-treated mice were treated with LLP2A-Ale or PTH for an additional 28 days. At day 56 animals were given a contrast agent and then sacrificed and then the animals femurs were decalcified and then scanned by microCT.
The efficacy of LLP2A-Ale was evaluated using a mouse model of glucocorticoid-induced osteonecrosis. 4-month-old male mice were treated for 56 days with glucocorticoids. At day 28, a group of mice was treated with either LLP2A-Ale or PTH for an additional 28 days. Blood vessel density of the femur was measured after sacrifice by microCT according to published methods. […] Vascular density of the femurs of glucocorticoid-treated mice subsequently treated with LLP2A-Ale or PTH was also assessed by giving the mice a contrast agent, then sacrificing the mice, decalcifying the femurs, and scanning the femurs by microCT. […] Without being bound to a particular theory, it is believed that LLP2A-Ale promotes increased vascularity by bringing MSCs to the bone that is turning over with osteonecrosis, which stimulates new blood vessel formation, which in turn is needed to stimulate new bone formation in the osteonecrotic bone.

[4] = Dex + LLP2A-Ale 250 μg/kg on days 30, 45, 60, 75
[5] = Dex + LLP2A-Ale 500 μg/kg on days 30, 45, 60, 75
[6] = LLP2A-Ale 750 μg/kg on days 30, 45, 60, 75

Cc1ccccc1NC(=O)Nc1ccc(CC(=O)N[C@@H](CCCCNC(=O)/C=C/c2cccnc2)C(=O)N[C@@H](CCCC(=O)O)C(=O)NC2(C(=O)NCCOCCOCCNC(=O)CCC(=O)NCCOCCOCCNC(=O)CCC(=O)N[C@@H](CCCCNC(=O)[C@H](N)CSC3CC(=O)N(CC4CCC(C(=O)NCCCC(O)(P(=O)(O)O)P(=O)(O)O)CC4)C3=O)C(N)=O)CCCCC2)cc1 (stereo partly shown) [LLP2A-Ale]
Vascular integrity of the distal femur [1]: maintained the vascular integrity
Samples with three or more osteonecrosis characteristics (number/total) [2, 4]: 12/16
Samples with three or more osteonecrosis characteristics (percent) [2, 4]: 75%
Samples with three or more osteonecrosis characteristics (number/total) [2, 5]: 9/16
Samples with three or more osteonecrosis characteristics (percent) [2, 5]: 56%
Number of mice per group showing all five (or at least three) osteonecrosis characteristics ([2]; Dex alone vs Dex+LLP2A-Ale groups, day 90 (FIG. 7)): decreased
Samples with three or more osteonecrosis characteristics (number/total) [2, 6]: 11/16
Samples with three or more osteonecrosis characteristics (percent) [2, 6]: 69%
Blood vessel density of the femur ([3]; 4 month old male mice, GC 56 days, LLP2A-Ale or PTH from day 28 for 28 days, microCT after sacrifice (FIG. 2)): significantly higher than the negative control; also recorded: significantly different from all other groups
Vascular density of femurs ([3]; contrast agent at day 56, decalcified femurs scanned by microCT (FIG. 3), vs GC alone): increased vascular density compared to glucocorticoid alone; also recorded: increased vascular density compared to GC alone
